From patent EP4813989A1, “CRYSTAL, PHARMACEUTICAL COMPOSITION, PREPARATION METHOD THEREFOR, AND USE THEREOF” (TYK Medicines, Inc., priority 2023, dated 2025)

Experiments:
Type in all cases: physicochemical
[1] = Light exposure test, related substances by HPLC; settings: 4500lx±500lx, open
Description: An investigation method for the light exposure test can be seen in Table 13 below.
Results of related substances in each crystal form under the light exposure condition (4500lx±500lx) can be seen in Table 17.
HPLC detection results of related substances under the light exposure condition can be seen as follows: Table 17

[2] = Accelerated test, related substances by HPLC; settings: 40°C±2°C, 75%RH±5%RH; for Impurity content RRT0.55 / Impurity content RRT0.66 / Impurity content RRT0.71 / Impurity content RRT0.94 / Impurity content RRT1.02 / Impurity content RRT1.06 / Impurity content RRT1.08 / Impurity content RRT1.15 / Total impurities: open
Procedure: An investigation method for the accelerated test can be seen in Table 14 below.
Change results of related substances in each crystal form under the accelerated condition (40°C±2°C, 75%RH±5%RH) can be seen in Table 18.
HPLC detection results of related substances under the accelerated condition can be seen as follows: Table 18

[3] = Flowability test (angle of repose)
Procedure: A flowability determination method was as follows: an angle of repose was determined by using a device composed of 2 to 3 funnels connected in series in a staggered manner, and drug powder was slowly and uniformly passed through the funnels onto a stationary base with a diameter d, so as to form a symmetric powder pile with a single layer of powder at the bottom. During the formation of the powder pile, a height of the funnels was maintained within 2-4 cm from a top of the powder pile, a height h of the cone was determined, and the angle of repose was calculated as tanθ=h/(d/2).

In the case of `C[C@@H](Nc1ccn2ncc(C3=NOC(C)(C)N3)c2n1)c1cc(F)cc(F)c1F` [crystal form E], the “Impurity content RRT1.02” value ([1]; 5 days) is reported as 0.22%, the “Impurity content RRT1.06” value ([1]; 5 days) is reported as 0.05% and the “Impurity content RRT1.08” value ([1]; 5 days) is reported as 0.20%. The “Impurity content RRT1.15” value ([1]; 5 days) was 0.04%, the Total impurities ([1]; 5 days) was 0.92% and the “Impurity content RRT0.55” value ([1]; 11 days) was 0.04%. For the same compound, the “Impurity content RRT0.66” value ([1]; 11 days) was 0.22%, the “Impurity content RRT0.71” value ([1]; 11 days) was 0.14% and the “Impurity content RRT0.92” value ([1]; 11 days) was 0.03%. For the same compound, the “Impurity content RRT0.94” value ([1]; 11 days) was 0.03%, the “Impurity content RRT1.02” value ([1]; 11 days) was 0.20% and the “Impurity content RRT1.06” value ([1]; 11 days) was 0.04%. The “Impurity content RRT1.08” value ([1]; 11 days) was 0.24%, the “Impurity content RRT1.15” value ([1]; 11 days) was 0.03% and the Total impurities ([1]; 11 days) was 0.98%. For the same compound, the “Impurity content RRT0.55” value ([1]; 32 days) was 0.03%, the “Impurity content RRT0.66” value ([1]; 32 days) was 0.25% and the “Impurity content RRT0.71” value ([1]; 32 days) was 0.13%. The “Impurity content RRT0.94” value ([1]; 32 days) was 0.08%, the “Impurity content RRT1.02” value ([1]; 32 days) was 0.20% and the “Impurity content RRT1.06” value ([1]; 32 days) was 0.04%. The “Impurity content RRT1.08” value ([1]; 32 days) was 0.25%, the “Impurity content RRT1.15” value ([1]; 32 days) was 0.04% and the Total impurities ([1]; 32 days) was 1.02%. For the same compound, the “Increase of impurity RRT1.08 content” value ([2]; 32 days) was 0.03%, the “Impurity content RRT0.55” value ([2]; 0 day) was 0.04% and the “Impurity content RRT0.66” value ([2]; 0 day) was 0.21%. The “Impurity content RRT0.71” value ([2]; 0 day) was 0.14%, the “Impurity content RRT0.94” value ([2]; 0 day) was 0.03% and the “Impurity content RRT1.02” value ([2]; 0 day) was 0.21%. The “Impurity content RRT1.06” value ([2]; 0 day) was 0.07%, the “Impurity content RRT1.08” value ([2]; 0 day) was 0.17% and the “Impurity content RRT1.15” value ([2]; 0 day) was 0.03%. The Total impurities ([2]; 0 day) was 0.89%, the “Impurity content RRT0.55” value ([2]; 5 days) was 0.04% and the “Impurity content RRT0.66” value ([2]; 5 days) was 0.21%. The “Impurity content RRT0.71” value ([2]; 5 days) was 0.15%, the “Impurity content RRT0.94” value ([2]; 5 days) was 0.03% and the “Impurity content RRT1.02” value ([2]; 5 days) was 0.21%. The “Impurity content RRT1.06” value ([2]; 5 days) was 0.05%, the “Impurity content RRT1.08” value ([2]; 5 days) was 0.18% and the “Impurity content RRT1.15” value ([2]; 5 days) was 0.03%. For the same compound, the Total impurities ([2]; 5 days) was 0.89%, the “Impurity content RRT0.55” value ([2]; 11 days) was 0.04% and the “Impurity content RRT0.66” value ([2]; 11 days) was 0.21%. For the same compound, the “Impurity content RRT0.71” value ([2]; 11 days) was 0.15%, the “Impurity content RRT0.94” value ([2]; 11 days) was 0.02% and the “Impurity content RRT1.02” value ([2]; 11 days) was 0.21%. For the same compound, the “Impurity content RRT1.06” value ([2]; 11 days) was 0.05%, the “Impurity content RRT1.08” value ([2]; 11 days) was 0.21% and the “Impurity content RRT1.15” value ([2]; 11 days) was 0.03%. The Total impurities ([2]; 11 days) was 0.94%, the “Impurity content RRT0.55” value ([2]; 32 days) was 0.04% and the “Impurity content RRT0.66” value ([2]; 32 days) was 0.21%. The “Impurity content RRT0.71” value ([2]; 32 days) was 0.16%, the “Impurity content RRT0.94” value ([2]; 32 days) was 0.04% and the “Impurity content RRT1.02” value ([2]; 32 days) was 0.20%. The “Impurity content RRT1.06” value ([2]; 32 days) was 0.04%, the “Impurity content RRT1.08” value ([2]; 32 days) was 0.20% and the “Impurity content RRT1.15” value ([2]; 32 days) was 0.05%. It also gave a Total impurities ([2]; 32 days) of 0.95% and an angle of repose [3] of 37.9 °.
